Here are results for two compounds from EPA's ToxValDB 9.5 (doi:10.2903/j.efsa.2010.1868).

One data set deals with Anas platyrhynchos. The note with it: short-term; oral; feed; mortality.
The next data set deals with Apis mellifera. The note with it: acute; duration: 48 hours; oral; unspecified; mortality.
The subject of a further data set is Bibionidae. The note with it: chronic/long-term; duration: 26 days; development.
The test system of a further data set is Canidae. The note with it: oral, Dog Other, body weight.
The subject of another data set is Colinus virginianus. The note with it: reproduction developmental.
The test system of another data set is Daphnia magna. The note with it: chronic/long-term; duration: 21 days; other.
The test system of a further data set is Lepomis macrochirus. The note with it: acute; duration: 96 hours; mortality.
The next data set concerns Mus musculus. The note with it: acute; oral; mortality.
Another data set deals with Perdix sp. The note with it: acute; oral; unspecified; mortality.
The test system of a further data set is Pimephales promelas. The note with it: chronic/long-term; duration: 33 days; other.
The test system of the next data set is Typhlodromus pyri. Nature of the data set: LR50; higher = less toxic. The note with it: chronic/long-term; duration: 7 days; mortality.

Values after ≈ are worked out from the molar mass of the structure shown.

Broadly, the NOAEL is the highest dose or exposure tested at which no adverse effect was seen. `NC(Cc1ncn[nH]1)C(=O)O` (configuration not stated) [1,2,4-Triazole-3-alanine]: in the data set on Rattus norvegicus (subchronic, duration: 90 days), the NOAEL was determined as 90 mg/kg-day.

Consider `OC(Cn1cncn1)(c1ccc(F)cc1)c1ccccc1F` (configuration not stated) [Flutriafol], for which the LC50 with Anas platyrhynchos is 435 mg/kg-day; with Lepomis macrochirus, 33 µg/mL (≈ 110 µM); in the data set on Tagia sp. (acute, duration: 14 days, mortality), more than 1000 mg/kg. Moreover, the LD50 with Apis mellifera is more than 2 µg/piece; in the data set with Mus musculus, 179 mg/kg; in the data set with Perdix sp., 616 mg/kg. The NOEC in the data set with Bibionidae amounted to 1.6 mg/L; with Colinus virginianus, 35.8 mg/kg-day; with Daphnia magna, 0.31 mg/L; in the data set with Pimephales promelas, 4.8 mg/L; in the data set on Tagia sp. (chronic/long-term, duration: 56 days), 12.2 mg/kg. In addition, the no-observed-adverse-effect level (NOAEL) in the data set with Canidae (chronic, duration: 1 years) was 5 mg/kg-day; in the data set on Canidae (subchronic, duration: 90 days), 5 mg/kg-day; in the data set on Rattus norvegicus (chronic, duration: 2 years, organ weight), 1 mg/kg-day; with Rattus norvegicus (reproduction developmental, reproduction), 13.5 mg/kg-day. Also, in the data set with Typhlodromus pyri, the LR50 was found to be 204 g/ha.
